# Source: ChEMBL document CHEMBL1909046, “DrugMatrix in vitro pharmacology data”
# pIC50, pKi: −log10 of the molar value.
# Assays:
# [1] = target: Mitogen-activated protein kinase 14 (Homo sapiens, UniProt Q16539); set-up: species or system Escherichia coli;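 further: inhibition of p38alpha enzyme activity in a biochemical kinase assay, with myelin basic protein serving as substrate; in other assays of this panel Not Active means under 50% inhibition at 10 µM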
# [2] = target: Epidermal growth factor receptor (Homo sapiens, UniProt P00533); assay: DRUGMATRIX: Protein Tyrosine Kinase, EGF Receptor enzyme inhibition (substrate: Poly(Glu:Tyr)); type: cell-based, Insect cells; settings: insect cells; Not Active = under 50% inhibition at 10 µM
# Chain of Epidermal growth factor receptor (P00533 whole entry): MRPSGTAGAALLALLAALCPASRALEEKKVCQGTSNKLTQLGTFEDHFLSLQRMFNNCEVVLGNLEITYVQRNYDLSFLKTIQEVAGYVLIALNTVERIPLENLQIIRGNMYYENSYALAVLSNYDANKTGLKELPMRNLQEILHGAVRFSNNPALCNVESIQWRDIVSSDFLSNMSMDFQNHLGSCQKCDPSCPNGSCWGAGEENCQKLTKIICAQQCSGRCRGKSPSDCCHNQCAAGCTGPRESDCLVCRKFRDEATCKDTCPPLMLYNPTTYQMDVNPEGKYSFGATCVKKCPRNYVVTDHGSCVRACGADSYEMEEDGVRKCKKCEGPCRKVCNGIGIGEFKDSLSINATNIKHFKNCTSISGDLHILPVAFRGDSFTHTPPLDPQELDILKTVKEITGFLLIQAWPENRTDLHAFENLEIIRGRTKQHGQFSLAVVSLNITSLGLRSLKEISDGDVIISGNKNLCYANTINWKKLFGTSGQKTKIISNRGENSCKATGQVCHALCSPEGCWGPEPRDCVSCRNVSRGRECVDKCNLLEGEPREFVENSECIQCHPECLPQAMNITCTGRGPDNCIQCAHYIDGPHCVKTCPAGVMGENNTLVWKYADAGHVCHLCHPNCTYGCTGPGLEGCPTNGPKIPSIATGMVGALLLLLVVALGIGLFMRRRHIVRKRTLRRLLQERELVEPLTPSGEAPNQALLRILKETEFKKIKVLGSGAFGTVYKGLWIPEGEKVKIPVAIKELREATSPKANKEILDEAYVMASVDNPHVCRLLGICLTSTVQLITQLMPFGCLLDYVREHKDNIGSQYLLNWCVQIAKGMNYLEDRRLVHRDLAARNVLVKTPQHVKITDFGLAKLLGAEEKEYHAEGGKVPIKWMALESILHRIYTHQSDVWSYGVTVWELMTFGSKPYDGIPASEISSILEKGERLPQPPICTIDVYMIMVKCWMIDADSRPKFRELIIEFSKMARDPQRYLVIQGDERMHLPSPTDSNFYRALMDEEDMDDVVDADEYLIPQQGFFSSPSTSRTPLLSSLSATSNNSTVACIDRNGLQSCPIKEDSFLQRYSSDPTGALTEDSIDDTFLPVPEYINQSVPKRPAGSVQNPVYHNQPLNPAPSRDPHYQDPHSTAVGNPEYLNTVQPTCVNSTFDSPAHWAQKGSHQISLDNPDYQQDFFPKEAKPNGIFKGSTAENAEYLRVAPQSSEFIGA
# [3] = DRUGMATRIX: Serotonin (5-Hydroxytryptamine) 5-HT3 radioligand binding (ligand: [3H] GR-65630); type: cell membranes, Membrane; settings: hek293; Not Active = under 50% inhibition at 10 µM
# [4] = target: Beta-1 adrenergic receptor (Homo sapiens, UniProt P08588); assay: DRUGMATRIX: Adrenergic beta1 radioligand binding (ligand: [125I] Cyanopindolol); type: cell membranes, CHO-K1, Membrane; settings: Not Active = under 50% inhibition at 10 µM; for IC50: cho-k1
# Chain of Beta-1 adrenergic receptor (P08588 whole entry): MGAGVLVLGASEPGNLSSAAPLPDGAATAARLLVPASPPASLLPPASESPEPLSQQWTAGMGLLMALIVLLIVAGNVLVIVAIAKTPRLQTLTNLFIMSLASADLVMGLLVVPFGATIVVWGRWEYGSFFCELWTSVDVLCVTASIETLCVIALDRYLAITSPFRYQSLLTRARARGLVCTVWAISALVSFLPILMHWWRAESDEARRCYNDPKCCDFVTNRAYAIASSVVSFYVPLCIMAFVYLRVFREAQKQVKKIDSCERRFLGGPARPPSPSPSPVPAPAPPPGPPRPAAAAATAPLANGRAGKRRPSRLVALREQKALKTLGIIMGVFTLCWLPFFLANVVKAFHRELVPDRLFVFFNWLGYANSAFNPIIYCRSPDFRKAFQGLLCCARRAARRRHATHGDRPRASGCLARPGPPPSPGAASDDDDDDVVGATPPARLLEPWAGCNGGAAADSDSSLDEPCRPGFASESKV
# [5] = DRUGMATRIX: Phorbol Ester radioligand binding (ligand: [3H] PDBu); type: cell membranes, Mus musculus, ICR, Brain, Membrane; settings: Not Active = under 50% inhibition at 10 µM
# [6] = DRUGMATRIX: Sodium/nucleoside co-transporter radioligand binding (ligand: nitrobenzylthioinosine); type: cell membranes, Cavia porcellus, Dunkin-Hartley, Cerebral cortex, Membrane; settings: Not Active = under 50% inhibition at 10 µM
# Cytochrome P450 3A4 = Cytochrome P450 3A4 (Homo sapiens, UniProt P08684); settings: bti-tn-5b1-4; further: in other assays of this panel Not Active means under 50% inhibition at 10 µM
# Chain of Cytochrome P450 3A4 (P08684 whole entry): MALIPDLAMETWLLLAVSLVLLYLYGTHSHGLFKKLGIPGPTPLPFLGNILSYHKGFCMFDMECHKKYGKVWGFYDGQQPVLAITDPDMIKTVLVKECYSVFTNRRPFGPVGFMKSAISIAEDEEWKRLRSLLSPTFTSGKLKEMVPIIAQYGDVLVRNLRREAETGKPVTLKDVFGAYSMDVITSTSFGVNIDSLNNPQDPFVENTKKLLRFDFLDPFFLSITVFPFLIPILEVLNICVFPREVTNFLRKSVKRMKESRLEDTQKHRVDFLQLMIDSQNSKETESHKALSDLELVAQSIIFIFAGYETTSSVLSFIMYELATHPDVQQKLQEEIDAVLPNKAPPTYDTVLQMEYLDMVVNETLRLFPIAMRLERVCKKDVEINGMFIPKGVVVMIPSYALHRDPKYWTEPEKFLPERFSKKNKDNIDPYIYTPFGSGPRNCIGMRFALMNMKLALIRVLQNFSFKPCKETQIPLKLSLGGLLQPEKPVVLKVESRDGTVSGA
# Chain of Mitogen-activated protein kinase 14 (Q16539 whole entry): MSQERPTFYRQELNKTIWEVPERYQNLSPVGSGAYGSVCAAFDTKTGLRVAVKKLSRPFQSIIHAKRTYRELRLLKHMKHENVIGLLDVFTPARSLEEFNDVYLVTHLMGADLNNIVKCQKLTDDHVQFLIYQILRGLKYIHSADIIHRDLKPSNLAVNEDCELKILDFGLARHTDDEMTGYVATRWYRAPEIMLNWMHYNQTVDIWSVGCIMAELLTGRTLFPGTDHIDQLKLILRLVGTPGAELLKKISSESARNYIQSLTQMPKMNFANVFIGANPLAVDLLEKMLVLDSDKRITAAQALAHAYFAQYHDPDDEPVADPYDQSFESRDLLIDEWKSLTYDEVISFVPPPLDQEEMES
SMILES,IC50 [1],IC50 [2],IC50 [3],Ki [3],IC50 [4],IC50 [5],Ki [5],IC50 [6],Ki [6],IC50 (Cytochrome P450 3A4),Ki (Cytochrome P450 3A4),pIC50 ([1]; read-out: IC50),pIC50 ([4]; read-out: IC50),pKi ([4]; read-out: Ki)
Nn1nnc2ccccc21,Not Active,Not Active,Not Active,Not Active,Not Active,Not Active,Not Active,Not Active,Not Active,Not Active,Not Active,–,–,–
CC[C@]1(O)CC[C@H]2[C@@H]3CCC4=CCCC[C@@H]4[C@H]3CC[C@@]21C,Not Active,Not Active,Not Active,Not Active,Not Active,Not Active,Not Active,Not Active,Not Active,Not Active,Not Active,–,–,–
N[C@@H](Cc1ccc(F)cc1)C(=O)O,Not Active,Not Active,Not Active,Not Active,Not Active,Not Active,Not Active,Not Active,Not Active,–,–,–,–,–
CCOC(=O)[C@H](CCc1ccccc1)N[C@@H](C)C(=O)N1Cc2ccccc2C[C@H]1C(=O)O,Not Active,Not Active,Not Active,Not Active,Not Active,Not Active,Not Active,Not Active,Not Active,Not Active,Not Active,–,–,–
O=C(c1ccccc1Cl)N1CCC(Cc2ccccc2)CC1,–,Not Active,Not Active,Not Active,Not Active,Not Active,Not Active,Not Active,Not Active,Not Active,Not Active,6.08,–,–
CCOC(=O)[C@H](CCc1ccccc1)N[C@@H](C)C(=O)N1CCC[C@H]1C(=O)O,Not Active,Not Active,Not Active,Not Active,Not Active,Not Active,Not Active,Not Active,Not Active,Not Active,Not Active,–,–,–
"Clc1cc2c(cc1Cl)Oc1cc(Cl)c(Cl)cc1O2 [2,3,7,8-TETRACHLORODIBENZO-P-DIOXIN]",Not Active,Not Active,Not Active,Not Active,Not Active,Not Active,Not Active,Not Active,Not Active,Not Active,Not Active,–,–,–
C=C1/C(=C\C=C2/CCC[C@]3(C)[C@@H]([C@H](C)CCCC(C)C)CC[C@@H]23)C[C@@H](O)C[C@@H]1O [ALFACALCIDOL],Not Active,Not Active,Not Active,Not Active,Not Active,Not Active,Not Active,Not Active,Not Active,Not Active,Not Active,–,–,–
CCCCCC[C@H]1C(=O)O[C@H](C)[C@H](NC(=O)c2cccc(NC=O)c2O)C(=O)O[C@@H](C)[C@@H]1OC(=O)CC(C)C [ANTIMYCIN A],Not Active,Not Active,Not Active,Not Active,Not Active,Not Active,Not Active,Not Active,Not Active,Not Active,Not Active,–,–,–
C[C@@H]1CC[C@H]2[C@@H](C)C(=O)O[C@@H]3O[C@@]4(C)CC[C@@H]1[C@]32OO4 [ARTEMISININ],Not Active,Not Active,Not Active,Not Active,Not Active,Not Active,Not Active,Not Active,Not Active,–,–,–,–,–
CO[C@H]1[C@@H](O)[C@H](N)[C@@H](O[C@H]2O[C@H]([C@H](C)N)CC[C@H]2N)[C@H](O)[C@@H]1N(C)C(=O)CN [ASTROMICIN],Not Active,Not Active,Not Active,Not Active,Not Active,Not Active,Not Active,Not Active,Not Active,Not Active,Not Active,–,–,–
[N-]=[N+]=CC(=O)OC[C@H](N)C(=O)O [AZASERINE],Not Active,Not Active,Not Active,Not Active,Not Active,Not Active,Not Active,Not Active,Not Active,Not Active,Not Active,–,–,–
CC[C@H]1OC(=O)[C@H](C)[C@@H](O[C@H]2C[C@@](C)(OC)[C@@H](O)[C@H](C)O2)[C@H](C)[C@@H](O[C@@H]2O[C@H](C)C[C@H](N(C)C)[C@H]2O)[C@](C)(O)C[C@@H](C)CN(C)[C@H](C)[C@@H](O)[C@]1(C)O [AZITHROMYCIN],Not Active,Not Active,Not Active,Not Active,Not Active,Not Active,Not Active,Not Active,Not Active,–,–,–,–,–
CC(C)(C)c1ccc(S(=O)(=O)/C=C/C#N)cc1 [BAY-11-7085],Not Active,Not Active,Not Active,Not Active,Not Active,Not Active,Not Active,Not Active,Not Active,Not Active,Not Active,–,–,–
CC(C)C[C@H]1C(=O)N2CCC[C@H]2[C@]2(O)O[C@](NC(=O)[C@@H]3C=C4c5cccc6[nH]c(Br)c(c56)C[C@H]4N(C)C3)(C(C)C)C(=O)N12 [BROMOCRIPTINE],Not Active,Not Active,Not Active,Not Active,–,Not Active,Not Active,Not Active,Not Active,–,–,–,5.62,5.86
CCC[C@@H]1C[C@@H](C(=O)N[C@@H]([C@H]2O[C@H](SC)[C@H](O)[C@@H](O)[C@H]2O)[C@H](C)Cl)N(C)C1 [CLINDAMYCIN],Not Active,Not Active,Not Active,Not Active,Not Active,Not Active,Not Active,Not Active,Not Active,–,–,–,–,–
CN1C(=O)CN=C(c2ccccc2)c2cc(Cl)ccc21 [DIAZEPAM],Not Active,Not Active,Not Active,Not Active,Not Active,Not Active,Not Active,Not Active,Not Active,–,–,–,–,–
CN1C[C@H](C(=O)N[C@]2(C)O[C@@]3(O)[C@@H]4CCCN4C(=O)[C@H](Cc4ccccc4)N3C2=O)C[C@@H]2c3cccc4[nH]cc(c34)C[C@H]21 [DIHYDROERGOTAMINE],Not Active,Not Active,Not Active,Not Active,Not Active,Not Active,Not Active,Not Active,Not Active,–,–,–,–,–
CCOC(=O)C1=C(C)NC(C)=C(C(=O)OC)C1c1cccc(Cl)c1Cl (configuration not stated) [FELODIPINE],Not Active,Not Active,Not Active,Not Active,Not Active,Not Active,Not Active,Not Active,Not Active,–,–,–,–,–
Cc1cn[nH]c1 [FOMEPIZOLE],Not Active,Not Active,Not Active,Not Active,Not Active,Not Active,Not Active,Not Active,Not Active,–,–,–,–,–
Cc1cnc(C(=O)NCCc2ccc(S(=O)(=O)NC(=O)NC3CCCCC3)cc2)cn1 [GLIPIZIDE],–,Not Active,Not Active,Not Active,Not Active,Not Active,Not Active,Not Active,Not Active,–,–,–,–,–
COc1ccccc1OCC(O)CO (configuration not stated) [GUAIFENESIN],Not Active,Not Active,Not Active,Not Active,Not Active,Not Active,Not Active,Not Active,Not Active,–,–,–,–,–
C/C=C\c1ccc(O)c(OC)c1 [ISOEUGENOL],Not Active,Not Active,Not Active,Not Active,Not Active,Not Active,Not Active,Not Active,Not Active,–,–,–,–,–
NC[C@H]1O[C@H](O[C@H]2[C@H](O)[C@@H](O[C@H]3O[C@H](CO)[C@@H](O)[C@H](N)[C@H]3O)[C@H](N)C[C@@H]2N)[C@H](O)[C@@H](O)[C@@H]1O [KANAMYCIN],Not Active,Not Active,Not Active,Not Active,–,Not Active,Not Active,Not Active,Not Active,Not Active,Not Active,–,–,–
CC[C@H](C)C(=O)O[C@H]1C[C@@H](C)C=C2C=C[C@H](C)[C@H](CC[C@@H]3C[C@@H](O)CC(=O)O3)[C@H]21 [LOVASTATIN],Not Active,Not Active,Not Active,Not Active,Not Active,Not Active,Not Active,Not Active,Not Active,–,–,–,–,–
OCCN1CCN(CCCN2c3ccccc3Sc3ccc(Cl)cc32)CC1 [PERPHENAZINE],Not Active,Not Active,Not Active,Not Active,Not Active,Not Active,Not Active,Not Active,Not Active,–,–,–,–,–
